Experimental data published in patent US11124498B2, “Compositions and methods for modulating protease activity” (THE REGENTS OF THE UNIVERSITY OF CALIFORNIA, priority 2016, dated 2021).
Residues, ends and D or L forms follow the SMILES beside them. *: point of attachment. Octanoyl = CCCCCCCC(=O)*

What was measured:
cathepsin S = target: T1, cathepsin S (Homo sapiens, UniProt P25774); assay: in vitro protease inhibition assay, cathepsin S; assay type: biochemical; settings: z-FR-AMC substrate, MES buffer pH 5.5, read-out: activity against cathepsin S
T1 construct: purchased R&D Systems
Experimental: (§1) Protease Inhibition Assays. Detailed information about synthesis of N-Boc-protected peptidyl aldehydes and their deprotection for protease inhibition activity tests are available in the Extended Experimental Procedures. For protease inhibition assays, all fluorescence measurements were made on a Biotek H4 instrument. Buffering reagents were purchased from Sigma-Aldrich and sterile-filtered prior to use. Compounds and substrates were diluted from DMSO stocks into water/DMSO such that final DMSO plate concentrations were below 5% during the reaction. All reactions were started by the addition of substrate to the enzyme/compound solutions (see also Extended Experimental Procedures).
Detailed procedures for protease inhibition assays. Enzymes: cathepsin L, cathepsin B, cathepsin C and cathepsin S were purchased from R&D Systems trypsin, chymotrypsin and calpain I were purchased from Sigma-Aldrich. Calpain I was also purchased from Abcam. Human 20s proteasome was purchased from Boston Biochem.
Substrates: z-FR-AMC, Boc-IEGR-AMC, Suc-ALPF-AMC and GR-AMC were purchased from Bachem. Suc-LLVY-AMC was purchased from Anaspec. Substrates were used without further purification.
Inhibitors: Carfilzomib was a generous gift from Onyx Pharmaceuticals and was used as a positive control in the proteasome inhibition assay. […]

cathepsin L = target: T2, cathepsin L (Homo sapiens, UniProt P07711); assay: in vitro protease inhibition assay, cathepsin L; assay type: biochemical; settings: z-FR-AMC substrate, MES buffer pH 5.5
T2 construct: purchased R&D Systems
Experimental: as §1
Deprotection of Boc-protected dipeptide aldehyde compounds. All the deprotection experiments were performed in an anaerobic chamber. Trifluoroacetic acid (TFA) was added to the purified Boc-protected dipeptidyl aldehydes. 1 μL of the reaction was added to 100 μL 80% DMSO in ddH2O and a 0.5 μL portion of the solution was examined by an Agilent 6530 qTOF LC/MS. For preparing dipeptide aldehyde solution for protease inhibition assays, the deprotection reaction was left at 30° C. for 15 mins. Then ddH2O was added to quench the reaction and give a 2.5 mM peptidyl aldehydes in 1% TFA solution. Some side products like isobutylene and their corresponding imine and pyrazinone products have poor water solubility. […]

cathepsin H (CTSH) = target: T3, cathepsin H (CTSH) (Homo sapiens, UniProt P09668); assay: competitive isoTOP-ABPP, blockade of IA-alkyne labeling, cathepsin H; assay type: binding; settings: THP-1 membranes, 250 nM Phe-Phe-H
T3 construct: We treated membrane preparations of the human innate immune (monocytic) cell line THP-1 with the bgc35 product Phe-Phe-H; endogenous in cells; host or cells: THP-1 membrane fraction
T3 sequence (P09668 98-335): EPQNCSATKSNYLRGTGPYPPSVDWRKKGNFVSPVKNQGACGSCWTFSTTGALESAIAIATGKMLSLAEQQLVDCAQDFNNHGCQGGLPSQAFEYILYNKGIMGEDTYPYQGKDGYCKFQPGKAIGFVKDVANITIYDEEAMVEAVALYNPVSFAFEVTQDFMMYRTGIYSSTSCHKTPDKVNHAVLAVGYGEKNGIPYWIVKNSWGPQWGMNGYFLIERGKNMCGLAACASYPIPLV
From the text: (§2) The proteases we assayed were chosen based on literature precedent. To determine the target of the peptide aldehydes in an unbiased way, we applied a quantitative chemical proteomic method, termed isoTOP-ABPP (Weerapana et al. 2010, Backus et al., 2016) to measure the global interactions of a representative dipeptide aldehyde, bgc35 product Phe-Phe-H, with cysteine residues in the human cell lysates. We treated membrane preparations of the human innate immune (monocytic) cell line THP-1 with the bgc35 product Phe-Phe-H or vehicle, and then these samples were treated with a cysteine reactive iodoacetamide-alkyne (IA-alkyne) probe and conjugated to an isotopically differentiated (heavy or light, respectively) TEV protease-cleavable biotin tag using copper-catalyzed azide-alkyne cycloaddition (CuAAC or click) chemistry. Vehicle- and peptide-treated samples were then combined, enriched, subjected to sequential trypsin and TEV digests and evaluated by LC-MS/MS. Site-specific blockade of IA-alkyne labeling as measured by quantitation of heavy/light MS1 chromatographic peaks designates cysteine residues that are targeted by Phe-Phe-H (heavy/light ratios, or R values>5; line, FIG. 3D). […]

[1] = system: more than 3500 total quantified cysteines across three different human cell proteomes; assay: competitive isoTOP-ABPP, proteome-wide selectivity over non-cathepsin cysteines; assay type: binding; settings: more than 3500 quantified cysteines, no additional targets
From the text: as §2

cathepsin B (CTSB) = target: T4, cathepsin B (CTSB) (Homo sapiens, UniProt P07858); assay: competitive isoTOP-ABPP, blockade of IA-alkyne labeling, cathepsin B; assay type: binding; settings: THP-1 membranes, 250 nM Phe-Phe-H
T4 construct: We treated membrane preparations of the human innate immune (monocytic) cell line THP-1 with the bgc35 product Phe-Phe-H; endogenous in cells; host or cells: THP-1 membrane fraction
From the text: as §2

cathepsin L (CTSL1) = target: T5, cathepsin L (CTSL1) (Homo sapiens, UniProt P07711); assay: competitive isoTOP-ABPP, blockade of IA-alkyne labeling, cathepsin L; assay type: binding; settings: THP-1 membranes, 250 nM Phe-Phe-H
T5 construct: We treated membrane preparations of the human innate immune (monocytic) cell line THP-1 with the bgc35 product Phe-Phe-H; endogenous in cells; host or cells: THP-1 membrane fraction
From the text: as §2

cathepsin Z (CTSZ) = target: T6, cathepsin Z (CTSZ) (Homo sapiens, UniProt Q9UBR2); assay: competitive isoTOP-ABPP, blockade of IA-alkyne labeling, cathepsin Z; assay type: binding
T6 construct: We treated membrane preparations of the human innate immune (monocytic) cell line THP-1 with the bgc35 product Phe-Phe-H; endogenous in cells; host or cells: THP-1 membrane fraction
From the text: as §2

cathepsin S (CTSS) = target: T7, cathepsin S (CTSS) (Homo sapiens, UniProt P25774); assay: competitive isoTOP-ABPP, blockade of IA-alkyne labeling, cathepsin S; assay type: binding
T7 construct: We treated membrane preparations of the human innate immune (monocytic) cell line THP-1 with the bgc35 product Phe-Phe-H; endogenous in cells; host or cells: THP-1 membrane fraction
From the text: as §2

cathepsin C (CTSC) = target: T8, cathepsin C (CTSC) (Homo sapiens, UniProt P53634); assay: competitive isoTOP-ABPP, blockade of IA-alkyne labeling, cathepsin C; assay type: binding
T8 construct: endogenously expressed CTSC is post-translationally regulated; endogenous in cells; host or cells: THP-1 membrane fraction
From the text: as §2

[2] = THP-1 and other human cell proteomes (Ramos, H1975), 25 μM Phe-Phe-H
[3] = THP-1 membranes, 250 nM Phe-Phe-H

T8 sequence (P53634 25-463): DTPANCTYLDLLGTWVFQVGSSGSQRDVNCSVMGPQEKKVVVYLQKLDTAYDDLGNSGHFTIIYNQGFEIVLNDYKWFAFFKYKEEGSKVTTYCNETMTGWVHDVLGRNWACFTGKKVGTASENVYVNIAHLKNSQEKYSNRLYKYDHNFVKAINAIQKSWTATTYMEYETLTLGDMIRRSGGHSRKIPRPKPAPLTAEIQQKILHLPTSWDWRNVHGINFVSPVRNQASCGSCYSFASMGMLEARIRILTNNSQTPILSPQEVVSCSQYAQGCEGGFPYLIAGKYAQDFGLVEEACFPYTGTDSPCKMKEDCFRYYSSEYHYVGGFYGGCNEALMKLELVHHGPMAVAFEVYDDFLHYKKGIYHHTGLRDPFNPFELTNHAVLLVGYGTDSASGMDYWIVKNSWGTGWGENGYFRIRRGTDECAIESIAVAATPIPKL
T6 sequence (Q9UBR2 62-303): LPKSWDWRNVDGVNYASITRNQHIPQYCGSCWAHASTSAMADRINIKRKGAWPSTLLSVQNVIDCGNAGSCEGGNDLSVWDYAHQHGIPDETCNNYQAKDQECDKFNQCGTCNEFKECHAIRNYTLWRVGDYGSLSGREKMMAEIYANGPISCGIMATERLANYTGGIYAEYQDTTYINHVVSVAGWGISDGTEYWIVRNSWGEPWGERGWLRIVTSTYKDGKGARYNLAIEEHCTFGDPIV
T7 sequence (P25774 115-331): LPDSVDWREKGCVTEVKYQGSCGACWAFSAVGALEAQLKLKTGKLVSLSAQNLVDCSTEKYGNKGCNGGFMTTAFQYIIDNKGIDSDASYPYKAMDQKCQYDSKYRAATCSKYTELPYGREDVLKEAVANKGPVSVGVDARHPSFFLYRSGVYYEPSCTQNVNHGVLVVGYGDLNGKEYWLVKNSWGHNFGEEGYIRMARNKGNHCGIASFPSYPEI
T5 sequence (P07711 114-333): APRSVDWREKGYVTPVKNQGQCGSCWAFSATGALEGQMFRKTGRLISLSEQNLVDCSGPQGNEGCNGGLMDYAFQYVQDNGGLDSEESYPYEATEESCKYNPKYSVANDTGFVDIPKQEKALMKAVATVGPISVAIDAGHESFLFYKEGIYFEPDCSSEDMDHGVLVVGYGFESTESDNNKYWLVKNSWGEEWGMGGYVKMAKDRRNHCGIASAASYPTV
T2 sequence (P07711 114-333): as above
T1 sequence (P25774 115-331): as the sequence (P25774 115-331) above

IC50 (cathepsin S) [nM]	inhibitory activity (IC50) against cathepsin L (cathepsin L)	heavy/light MS1 ratio (R value), CTSH (cathepsin H (CTSH))	heavy/light MS1 ratio (R value), CTSB (cathepsin B (CTSB))	heavy/light MS1 ratio (R value), CTSL1 catalytic cysteine Cys138 (cathepsin L (CTSL1))	heavy/light MS1 ratio (R value), CTSZ (cathepsin Z (CTSZ); [2])	heavy/light MS1 ratio (R value), CTSZ (cathepsin Z (CTSZ); [3])	heavy/light MS1 ratio (R value), CTSS (cathepsin S (CTSS); [2])	heavy/light MS1 ratio (R value), CTSS (cathepsin S (CTSS); [3])	heavy/light MS1 ratio (R value), CTSC (cathepsin C (CTSC); [2])	heavy/light MS1 ratio (R value), CTSC catalytic cysteine Cys258 (cathepsin C (CTSC); [3])	Compound	heavy/light MS1 ratio (R value), additional (non-cathepsin) cysteines [1]
13	undetectable activity										CCCCCCCC(=O)N[C@@H](CCSC)C(=O)N[C@H](C=O)Cc1ccccc1 [Compound 16, N-octanoyl-Met-Phe-H] (Octanoyl-Met-Phe-aldehyde)	
		< 2.0	< 2.0	> 20	> 5	< 2.0	> 5	< 2.0	> 5	> 2.78	N[C@@H](Cc1ccccc1)C(=O)N[C@H](C=O)Cc1ccccc1 [Phe-Phe-H] (H-Phe-Phe-aldehyde)	< 2.0
